Measurements published in patent US20160376374A1, “ANTIBODIES TO CEACAM1 AND KINASE INHIBITORS FOR TREATING BRAF-MUTATED CELLS” (TEL HASHOMER MEDICAL RESEARCH INFRASTRUCTURE AND SERVICES …, priority 2014, published 2016).

Assays:
[1] = tested on: B-Raf V600E (624mel, sk-mel-5) cells; experiment: MAPK activity by immunoblotting for phosphorylated ERK1/2, B-Raf V600E cells; type: cell-based
Experimental: (§1) MAPK activity was measured in B-Raf V600E (624mel, sk-mel-5) and B-Raf W.T. (076mel, 013mel) cell samples by immunoblotting for phosphorylated ERK1/2 (pERK, Thr202/Tyr204), total ERK1/2 and actin after 48 hours of exposure to vemurafenib (1 μM).
(§2) MAPK activity was measured in vemurafenib-sensitive and vemurafenib-resistant B-Raf V600E (624mel) cell samples by immunoblotting for phosphorylated ERK1/2 (pERK, Thr202/Tyr204), total ERK1/2 and actin after 24 hours of exposure to 160 nM vemurafenib.

[2] = tested on: B-Raf W.T. (076mel, 013mel) cells; experiment: MAPK activity by immunoblotting for phosphorylated ERK1/2, B-Raf W.T. cells; type: cell-based; conditions: B-Raf W.T. cells 076mel, 1 μM, 48 hours, FIG. 2
Experimental: as §1

[3] = tested on: vemurafenib-resistant B-Raf V600E (624mel) cells; experiment: MAPK activity by immunoblotting for phosphorylated ERK1/2, vemurafenib-resistant cells; type: cell-based; conditions: vemurafenib-resistant 624mel; 160 nM, 24 hours; FIG. 4B
Experimental: Two vemurafenib-sensitive B-Raf V600E cell samples (526mel, 624mel) and vemurafenib-resistant cell lines derived therefrom were incubated for 2 days with 1 μM vemurafenib. Cells were then analyzed for CEACAM1 protein expression by FACS as described above. Vemurafenib-resistant cell lines were generated by gradual increase of the inhibitor's concentration in culture, up to 0.32 μM.
as §2

[4] = tested on: CEACAM1 expression on B-Raf V600E cells (526mel, 624mel); experiment: CEACAM1 expression on cells by FACS, mutated B-Raf cells; type: cell-based, human
Experimental: Total RNA was extracted from 1.0*10^6 melanoma cells with TRIZOL. cDNA was generated with standard reverse transcriptase. Real time PCR was performed with CEACAM1-specific primers and compared to glyceraldehyde 3-phosphate dehydrogenase (GAPDH) tested as a control. Cycle threshold (Ct) values above 36 were considered as minimal or no expression. B-Raf genotype was determined by direct sequencing of amplified fragment from genomic DNA that contains the codon for position 600 of the B-Raf protein. Statistical analysis of the correlation between CEACAM1 expression (negative or positive) with the mutation status (positive=V600E, or negative=wild type) was performed by Fisher exact test.
Cells were then tested for CEACAM1 expression using MRG1 (murine antibody to human CEACAM1) in flow cytometry as described above. Total RNA was extracted with TRIZOL and cDNA was generated with a reverse transcriptase, according to routine protocols.

[5] = tested on: CEACAM1 expression on B-Raf W.T. cells (076mel); experiment: CEACAM1 expression on cells by FACS, W.T. B-Raf cells; type: cell-based, human; conditions: 076mel (W.T. B-Raf); 0.1 μM and 1 μM, 2 to 48 hours; FIG. 3A
[6] = tested on: B-Raf V600E 526mel melanoma cells; experiment: Determined IC50 of vemurafenib used to generate resistant melanoma cells; type: cell-based
Experimental: B-Raf V600E 526mel melanoma cells were cultured in the presence of 1 μM vemurafenib. Cultivation was performed in RPMI 1640 supplemented with 1 mM Na-Pyruvate, 1 mM Pen-Strep, 1 mM L-Glutamine, 1 mM non-essential amino acids, and 10% heat inactivated fetal calf serum. […] Cells were then tested for CEACAM1 expression using MRG1 (murine antibody to human CEACAM1) in flow cytometry as described above. Total RNA was extracted with TRIZOL and cDNA was generated with a reverse transcriptase, according to routine protocols.

[7] = tested on: B-Raf V600E cell samples (526mel, 624mel) with cytotoxic T cells; experiment: Killing of melanoma cells by cytotoxic T cells, LDH release; type: cell-based; conditions: pre-incubated with 1 μM, overnight, effector-target ratio 5:1, FIG. 7
Experimental: Melanoma cells were pre-incubated with 1 μM vemurafenib and then co-incubated overnight with HLA-A2 matched antigen-matched T cells in effector-target ratio of 5:1. Cell killing was determined by LDH release.

[8] = tested on: CEACAM1 expression on sk-mel-2 cells (W.T. B-Raf, mutated N-Ras); experiment: CEACAM1 expression on cells by FACS, W.T. B-Raf / mutated N-Ras cells; conditions: sk-mel-2 (W.T. B-Raf, mutated N-Ras); 1 μM; FIG. 3C
Experimental: At each time point, CEACAM1 expression on the cells was determined by FACS. Volume equivalents of DMSO (vehicle) were used as control.

Which “phosphorylation of ERK1/2 (pERK, Thr202/Tyr204)” value ([1]; B-Raf V600E cells 624mel, sk-mel-5, 1 μM, 48 hours, FIG. 2) does the source give for `CCCS(=O)(=O)Nc1ccc(F)c(C(=O)c2c[nH]c3ncc(-c4ccc(Cl)cc4)cc23)c1F` [vemurafenib, N-(3-{[5-(4-chlorophenyl)-1H-pyrrolo[2,3-b]pyridin-3-yl]carbonyl}-2,4-difluorophenyl)propane-1-sulfonamide] here?
Its value is “almost completely abolishes the phosphorylation of ERK1/2”.

And the “phosphorylation of ERK1/2 (pERK, Thr202/Tyr204)” value ([1]; vemurafenib-sensitive 624mel, 160 nM, 24 hours, FIG. 4B)?
The value was “almost completely abolishes the phosphorylation of ERK1/2”.

What about the “phosphorylation of ERK1/2 (pERK, Thr202/Tyr204)” value [2] of the same molecule?
Its value is “no substantial effect”.

What about the “MAPK activity (phosphorylated ERK1/2)” value [3] of the same molecule?
Its value is “practically uninterrupted”.

What about the “CEACAM1 expression levels on cells” value ([4]; 526mel, 624mel (mutated B-Raf), 0.1 μM and 1 μM, 2 to 48 hours, FIG. 3A-B) of the same molecule?
Its value is “dose-dependent effect”.

What about the CEACAM1 expression ([4]; B-Raf V600E 526mel melanoma cells, 1 μM, flow cytometry with MRG1, FIG. 5) of the same molecule?
The CEACAM1 expression was “down regulates CEACAM1 expression”.

And the “CEACAM1 expression levels on cells” value [5]?
The value was “did not have any effect”.

What about the IC50 [6] of the same molecule?
Its IC50 is 640 pM.

What about the “sensitization of melanoma cells to cytotoxic T cells (cell killing by LDH release)” value [7] of the same molecule?
Its value is “significantly sensitizes melanoma cells to cytotoxic T cells”.

And the “CEACAM1 expression levels on cells” value [8]?
The value was “no effect”.
